Source: US20230348866A1, “BI[…] FOR THE PRODUCTION OF CANNABINOIDS AND OTHER […]” (The Regents of the University of California, priority 2019, published 2023)

What was measured:
[1] = tested on: MatB pathway (RpMatB, CsAAE3, CsOLS, CsOAC); experiment: OA/DA production using the MatB pathway with additives; format: biochemical; settings: titer at 4 hours relative to control
Protocol: (§1) OA/DA Reaction Conditions using MatB. The conditions for reactions using RpMatB to produce malonyl-CoA were as follows: 15 mM malonate, 5 mM hexanoate or 5 mM butyrate, 1 mM CoA, 4 mM ATP, 25 mM creatine phosphate, 10 mM KCl, 5 mM MgCl2 and 50 mM Tris pH 8.0, 1.3 μM RpMatB, 4.9 μM CsAAE3, 2.9 μM CsOLS, 46.6 μM CsOAC, 7.6 μM GsPpase, 2.6 μM ADK and 2 units of CPK (from Sigma Aldrich). For the additive reactions GPP (0.5-2 mM), OA (0.25-2 mM) and DA (0.25-5 mM) were added before the reaction was initiated.
For the time course, the reactions were quenched (see below) at various time points between 5 mins and 5 hours. The reactions with additives were quenched at 4 hours.
HPLC Sample Analysis. All samples were quenched by 4-fold dilution into methanol (samples with a higher concentration of analyte were diluted up to 10-fold). The protein precipitate was removed by centrifugation at 16,000×g for 5 minutes and the supernatant was transferred to an LC vial for analysis.
Samples were analyzed by reverse phase chromatography on a Syncronis C8 column (4.6×100 mm) using a Thermo Ultimate 3000 HPLC. The column compartment temperature was set to 40° C., and the flow rate was 1 mL/min. The sample inject volume was 20 μL (full loop). The compounds were separated using a gradient elution with water+0.1% TFA (solvent A) and acetonitrile+0.1% TFA (solvent B) as the mobile phase. Solvent B was held at 20% for the first minute. Then solvent B was increased to 95% B over 4 minutes, and held at 95% B for 3 minutes. The column was then re-equilibrated to 20% B for three minutes, for a total run time of 11 minutes. Standards were used to identify the retention time, and to produce an external standard curve for quantification.

OLS = biological target: T1, OLS (Cannabis sativa, UniProt B1Q2B6); experiment: OLS activity assay (inhibition by OA/DA); format: biochemical, C. sativa; settings: for inhibition of OLS activity: individual enzymes screened, 250 μM OA or 1 mM DA
T1 construct: CsAAE3, CsOLS and CsOAC were synthesized and cloned into the pET28(+) vector with Nde1/Xho1 restriction sites; made in house; host or cells: E. coli C43 BL21 (DE3)
T1 sequence (B1Q2B6 with tags, fused parts or gaps): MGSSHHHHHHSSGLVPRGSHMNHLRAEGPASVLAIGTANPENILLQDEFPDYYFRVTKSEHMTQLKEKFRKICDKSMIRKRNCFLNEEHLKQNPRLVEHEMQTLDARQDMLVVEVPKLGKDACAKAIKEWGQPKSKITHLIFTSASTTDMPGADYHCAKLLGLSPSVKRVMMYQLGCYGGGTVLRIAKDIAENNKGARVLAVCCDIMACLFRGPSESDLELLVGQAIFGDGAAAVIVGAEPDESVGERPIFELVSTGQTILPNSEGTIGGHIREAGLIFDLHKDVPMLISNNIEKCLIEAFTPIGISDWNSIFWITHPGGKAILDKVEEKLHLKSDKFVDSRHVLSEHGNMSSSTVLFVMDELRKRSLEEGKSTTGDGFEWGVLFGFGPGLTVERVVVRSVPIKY
Protocol: OLS Activity Assay. For the inhibition experiments the conditions were altered to: 1 mM malonyl-CoA, 400 μM hexanoyl-CoA in 50 mM citrate buffer, pH 5.5 in a final volume of 200 μL. Either 1% ethanol, 250 μM OA or 1 mM DA was added to the reaction, and then the reactions were initiated by adding 0.65 mg/mL OLS. 50 μL aliquots were quenched at 2, 4, 6 and 8 minutes in 150 μL of methanol. The reactions were vortexed briefly and centrifuged at 16,000×g for 2 minutes to pellet the proteins. The supernatant was analyzed by HPLC. The raw peak areas of HTAL, PDAL and olivetol were summed and plotted against time to determine the rate. The rate of the OA supplemented reaction and the DA supplemented reaction were normalized to the ethanol control.

OA pathway = experiment: RpMatB reaction system with added GPP and NphB M31^S; format: biochemical; settings: increasing GPP (0.5-2 mM)
Protocol: as §1
In an effort to reduce OA/DA inhibition, experiments were performed to remove OA/DA from the reaction as it is made by converting it directly into CBGA/CBGVA. To test this GPP and a stabilized CBGA synthase were added to the system (FIG. 6). The CBGA synthase used, NphB M31^S, is a stabilized version of the soluble enzyme designed previously (Valliere et al., Nat. Commun. 10:565, 2019). […] Experiments were performed to test the effect of GPP concentration on OA production. At just 500 μM GPP, OA production decreased 40% percent (FIG. 2C).

Structure (SMILES)	reduction of DA production ([1]; 1 mM OA added at time zero) [%]	inhibition of OLS activity (OLS)	inhibition of enzyme activity, comparison among enzymes (OLS; reaction relevant conditions)	decrease of OA production ([1]; 500 μM GPP added) [%]	overall production of OA and CBGA (OA pathway)	reduction of OA production ([1]; 1 mM DA added at time zero) [%]
CCCCCc1cc(O)cc(O)c1C(=O)O [OA, olivetolic acid]	90	strongly inhibited	CsOLS is the most inhibited	–	–	–
CC(C)=CCC/C(C)=C/COP(=O)(O)OP(=O)(O)O [GPP, geranyl pyrophosphate]	–	–	–	40	decrease	–
CCCc1cc(O)cc(O)c1C(=O)O [DA, divarinic acid]	–	strongly inhibited	–	–	–	30
